Data as given in patent US20130012472A1, “COMPOSITION AND METHODS OF INHIBITING GASTROINTESTINAL PATHOGEN INFECTION” (Boston College, priority 2011, published 2013).

Assays:
ETEC H10407 = experiment: Bacteria invasion assay (adherence and invasion of ETEC to IECs); assay type: cell-based, Escherichia coli
Description: (§1) Intestinal epithelial cells (IECs) such as HCT8, T84, Caco2, H4, and FHs74 cells, were cultured in 24-well tissue culture plates (Corning life Sciences Inc, MA) at 5×10^4 cells/well in antibiotic free media for 48 hours. The IEC cells, with or without treatment of HMOS or TFiLNO, were incubated with a suspension of ETEC H10407 cells (10^5-10^9 cfu) for 1 h at 37° C. […] gentamicin was then added to the culture to kill any extracellular bacteria cells. Cell lysis was performed in 500 μl of 0.5% Triton X-100 (Sigma, Mo.) for 30 minutes at room temperature. The cell lysates were plated on difco agar plates (antibiotic free) at a proper dilution of 500. The total number of cell-associated bacteria was determined as the number of bacteria in IEC lysate immediately after infection. The number of invaded bacteria was determined as those detected in IEC cell lysate prepared from IECs treated with gentamycin for 1 hour after bacterial infection. The number of bacteria adhered to IEC cells was calculated as follows: (The total number of cell-associated bacteria)−(The number of invaded bacteria). All of the adhesion and invasion assays were performed in duplicate in at least three independent experiments.

IL-8 [1] = experiment: ELISA of IL-8 secretion by ETEC-infected IECs; assay type: cell-based; details: for IL-8 secretion induced by ETEC invasion: ETEC-infected IECs with inhibitors, FIGS. 3D and 3E
Description: as §1
(§2) Levels of proinflammatory factors (IL-8, IL-6, TNF-α, and MCP-1) in the culture supernatants of the IECs were measured using ELISA kits from R&D following manufacturer's protocols.

ETEC [2] = experiment: Bacteria killing assay; assay type: cell-based, Escherichia coli; details: TFiLNO 30 pg/ml; FIG. 6A
ETEC [3] = experiment: Pre-incubation assay (ETEC pre-incubated with TFiLNO, then invasion of T84 cells); assay type: cell-based, Escherichia coli; details: ETEC pre-incubated 2 h with TFiLNO 30 pg/mL, then T84 cells 1 hour; FIG. 6B
Description: ETEC cells in mid-logarithmic growth phase were re-suspended in PBS (pH 7.2) at a concentration of 2×10^8 cells/ml. The suspension was mixed with an equal volume of PBS in the presence or absence of TFiLNO (30 pg/mL), and incubated in U-bottom 96-well plates at room temperature for 2 h with brief mixing every 15 min. At the end of the incubation, the ETEC cells were co-incubated with T84 cells for 1 hour at 37° C. After extracellular bacteria were killed by gentamycin, invaded ETEC were measured as described above.

ETEC [4] = experiment: Wash-out experiments (IECs pre-incubated with TFiLNO, washed, then ETEC invasion); assay type: cell-based, Escherichia coli; details: IECs incubated 48 hours with 30 pg/mL TFiLNO, washed 6 times with PBS; FIG. 6C
Description: IECs were grown in 24-well tissue culture plates (Corning life Sciences Inc, MA) at 5×10^4 cells/well in an antibiotic free medium for 48 hours. The culture medium was then replaced with a fresh medium containing 30 pg/mL TFiLNO. The IECs were further incubated at 37° C. for 48 hours. Supernatants were discarded and cells were washed 6 times with PBS. The cells were then incubated in a fresh medium free of TFiLNO and contains ETEC (10^8). After 1 hour incubation, extracellular bacteria were killed by gentamycin. Invaded ETEC were measured as described previously.

IL-8 [5] = experiment: LPS-stimulated IL-8 secretion by T84 cells in the absence of ETEC (ELISA); assay type: cell-based; details: TFiLNO 30 pg/ml, 1 h at 37° C., FIG. 7A
Description: as §2
To examine the effect of TFiLNO on IL-8 production, this oligosaccharide (30 pg/ml) was incubated with T84 cells in the absence of ETEC for 1 h at 37° C. IL-8 secretion to the culture medium was determined by ELISA. […] See also FIGS. 7B and 7C.

CD14 = CD14 expression on IECs (RT-PCR, FACS); assay type: cell-based, human; details: TFiLNO-treated IECs; FIGS. 7B and 7C
Description: IEC cells (e.g., T84 cells) were treated with HMOS (5 mg/mL) prepared as described above for 48 hours. Cells not treated by HMOS were used as a negative control. Total RNAs were purified from the IEC cells and RT-PCR was performed following routine methods to determine the expression levels of genes of interest, including those shown in FIG. 7B. GADPH was used as an internal control. The relative gene expression levels were determined by Delta CT Method. T84 cells treated with or without HMOS were incubated with PE-conjugated mouse anti-human CD14 Mabs. PE-conjugated isotype-matched (IgG1) antibodies were used as controls. Data respecting 20,000 live cells from each sample were collected and subjected to FACS analysis following routine procedures.

C=C1[C@@H](C)[C@H]2[C@H](Cc3ccccc3)NC(=O)[C@]23[C@H](OC(C)=O)/C=C/[C@@](C)(O)C(=O)[C@@H](C)C/C=C/[C@H]3[C@@H]1O [cytochalasin D, reference compound]
ETEC invasion of IEC cells (ETEC H10407; cytochalasin D, FIG. 3D): Inhibition of invasion
IL-8 secretion induced by ETEC invasion (IL-8 [1]): inhibited

Trifucosyl(1,2-1,2-1,3)-lacto-N-octoase [TFiLNO]
adherence of ETEC to IEC cells (ETEC H10407; TFiLNO 30 pg/ml, FIG. 5A): inhibit
invasion of ETEC to IEC cells (ETEC H10407; TFiLNO 30 pg/ml, FIG. 5B): inhibit
secretion of IL-8 by the treated IEC cells (IL-8 [1]; TFiLNO 30 pg/ml, ETEC-infected IEC cells, over time, FIG. 5C): significantly reduced
killing of ETEC (ETEC [2]): did not kill
invasion of ETEC after pre-incubation of ETEC with TFiLNO (ETEC [3]): could not be further inhibited
inhibitory activity against ETEC invasion after washing off preincubated TFiLNO (ETEC [4]): did not affect
IL-8 secretion stimulated by LPS (IL-8 [5]): directly inhibited
CD14 expression on IECs (CD14): suppression

polymycin-B
IL-8 secretion induced by ETEC invasion (IL-8 [1]): reduced
